Patent publication US11685744B2, “CDK inhibitors and their use as pharmaceuticals” (Prelude Therapeutics, Incorporated, priority 2020, dated 2023)

Columns and labels:
CDK4/Cyclin D1 = CDK4/Cyclin D1 (Homo sapiens (Human), UniProt P11802); test: CDK4/CyclinD1 enzymatic activity assay (TR-FRET); assay type: biochemical; conditions: ATP 2 mM, read-out: CDK4_D1 IC50
How it was run: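 Insect-cell CDK4/Cyclin D1 (1 nM) with ULight-4E-BP1 (100 nM) and 2 mM ATP in HEPES pH 7.4 buffer, preincubated 20 min with compound (9-dose, 3-fold dilutions); 10 mM MgCl2 started the reaction, run 60 min at 37 °C. EDTA/Eu-anti-phospho-4E-BP1 TR-FRET detection; IC50 from 4-parameter Hill fit.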

[1] = Brain-to-plasma ratio (Kp) determination in Sprague-Dawley rats; conditions: male, rat, po, 10 mg/kg
Protocol: The brain-to-plasma ratio (Kp) was determined in male Sprague-Dawley rats (7-9 weeks old) four hours after a single oral dose. Rats were acclimated and given free access to standard rodent chow and water throughout the entire study. Test articles were formulated as a solution at 0.3, 0.4, 0.5, or 1.0 mg/mL in a vehicle comprised of 10:15:75 (v:v:v) dimethylacetamide (DMA):Solutol HS15:water and delivered orally at a rate of 10 mL/kg to three rats to achieve final doses of 3, 4, 5, or 10 mg/kg, respectively. At 4 hours post-dose, blood samples were collected via jugular vein cannula into tubes containing K2EDTA as the anticoagulant and stored on ice. Blood samples were then centrifuged at 4° C. at 6000 rpm for 5 minutes, and the resulting plasma was placed into tubes and stored frozen at −80° C. until analysis. Whole brain samples were also collected at 4 hours post-dose. The weight of each brain was measured and recorded, and samples were immediately stored on dry ice. Brain samples were then transferred to storage at −80° C. until analysis.
Prior to analysis, brain samples were combined with water (4 mL/1 gram of brain) and homogenized. Prior to injection, plasma and brain homogenate samples and standards were prepared for analysis by precipitation with acetonitrile or 1:1 (v:v) methanol:acetonitrile. Samples were then thoroughly mixed, centrifuged at 4000 rpm for 15 minutes, and the resulting supernatant was transferred for analysis. Test article concentrations in plasma and brain homogenate were then determined by LC-MS/MS and quantified against calibration standards prepared to known concentrations in matched blank (analyte-free) biological matrix. The Kp was then determined by dividing the dilution-corrected brain concentration by the plasma concentration from each rat. A brain density of 1 gram/mL was assumed for all calculations.

[2] = system: MCF7 adenocarcinoma cell line; test: Cell proliferation studies in MCF7 cells (ATP-Lite, 10 days); assay type: cell-based; conditions: Homo sapiens, 240 h, read-out: PROLIFERATION_CTG_MCF7 IC50
How it was run: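 Cells were seeded at 100 or 200 per well in DMEM with 10% FBS and dosed in quadruplicate over a 9-point 3-fold dilution. Incubation lasted 10 days at 37 °C, with media exchange and re-dosing on day 5. Viability was read by ATP-Lite luminescence and normalised to background and DMSO, giving IC50.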

CDK6/Cyclin D1 = CDK6/Cyclin D1 (Homo sapiens (Human), UniProt Q00534); test: CDK6/CyclinD1 enzymatic activity assay (TR-FRET); assay type: biochemical; conditions: ATP 250 μM, read-out: CDK6_D1 IC50
Chain of CDK6/Cyclin D1 (Q00534 whole entry): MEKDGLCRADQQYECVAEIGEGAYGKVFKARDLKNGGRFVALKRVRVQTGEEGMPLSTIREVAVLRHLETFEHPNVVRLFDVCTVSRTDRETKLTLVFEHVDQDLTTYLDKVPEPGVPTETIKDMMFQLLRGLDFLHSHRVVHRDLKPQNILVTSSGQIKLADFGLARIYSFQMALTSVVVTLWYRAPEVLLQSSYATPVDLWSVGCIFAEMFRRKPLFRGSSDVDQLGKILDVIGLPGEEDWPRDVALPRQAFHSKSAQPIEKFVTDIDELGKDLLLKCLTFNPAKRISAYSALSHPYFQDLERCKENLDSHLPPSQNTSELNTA
Chain of CDK6/Cyclin D1 (P24385 whole entry partner): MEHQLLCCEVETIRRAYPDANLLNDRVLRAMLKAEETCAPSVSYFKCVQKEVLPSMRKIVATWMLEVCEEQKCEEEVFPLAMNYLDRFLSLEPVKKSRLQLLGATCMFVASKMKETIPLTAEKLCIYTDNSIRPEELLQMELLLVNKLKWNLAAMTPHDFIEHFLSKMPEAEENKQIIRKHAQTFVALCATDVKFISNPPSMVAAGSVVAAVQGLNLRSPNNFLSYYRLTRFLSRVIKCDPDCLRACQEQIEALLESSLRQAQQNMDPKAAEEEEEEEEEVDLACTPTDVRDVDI
How it was run: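 Insect-cell-expressed CDK6/Cyclin D1 (1 nM) phosphorylated ULight-4E-BP1 (100 nM) with 250 μM ATP in HEPES pH 7.4 buffer. After 20 min compound preincubation, reactions were started with 10 mM MgCl2 and run 60 min at 37 °C. EDTA-quenched samples were read by TR-FRET with Eu-anti-P-4E-BP1; IC50 from 9-dose 4-parameter fits.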

[3] = brain (homogenate) versus plasma

Chain of CDK4/Cyclin D1 (P11802 whole entry): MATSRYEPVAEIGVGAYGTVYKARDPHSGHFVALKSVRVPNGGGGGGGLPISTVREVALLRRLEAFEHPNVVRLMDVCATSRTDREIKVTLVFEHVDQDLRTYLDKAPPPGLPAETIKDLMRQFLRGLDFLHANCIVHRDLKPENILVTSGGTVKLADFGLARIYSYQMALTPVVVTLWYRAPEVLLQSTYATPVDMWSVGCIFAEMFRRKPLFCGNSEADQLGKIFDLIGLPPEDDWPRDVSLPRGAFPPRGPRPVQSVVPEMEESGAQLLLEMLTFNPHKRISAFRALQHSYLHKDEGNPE
Chain of CDK4/Cyclin D1 (P24385 whole entry partner): as the sequence (P24385 whole entry partner) above

Row | SMILES | IC50 (CDK4/Cyclin D1) | Kp at 4 h [1, 3] | IC50 [2] | IC50 (CDK6/Cyclin D1) | Kp at 4 h ([1]; brain / plasma)
1 | CCN1CC2(CC(c3ccc(Nc4ncc(F)c(-c5cc6nc(C)n(C(C)C)c6s5)n4)nc3)C2)C1 [Example 112, N-(5-(2-Ethyl-2-azaspiro[3.3]heptan-6-yl)pyridin-2-yl)-5-fluoro-4-(3-isopropyl-2-methyl-3H-thieno[2,3-d]imidazol-5-yl)pyrimidin-2-amine] | ≤ 20 nM | < 1 | 20 to 200 nM | 20 to 200 nM | –
2 | Cc1nc2cc(-c3nc(Nc4ccc(OC5CCN(C)C5)cn4)ncc3F)sc2n1C(C)C (centres unmarked) [Example 114, 5-Fluoro-4-(2-methyl-3-propan-2-ylthieno[2,3-d]imidazol-5-yl)-N-[5-(1-methylpyrrolidin-3-yl)oxypyridin-2-yl]pyrimidin-2-amine] | ≤ 20 nM | – | 20 to 200 nM | 20 to 200 nM | 1 to 3
3 | Cc1nc2cc(-c3nc(Nc4ccc(C5CCN(C)CC5)cn4)ncc3C(F)(F)F)sc2n1C(C)C [Example 120, 4-(3-Isopropyl-2-methyl-3H-thieno[2,3-d]imidazol-5-yl)-N-(5-(1-methylpiperidin-4-yl)pyridin-2-yl)-5-(trifluoromethyl)pyrimidin-2-amine] | ≤ 20 nM | 1 to 3 | 20 to 200 nM | ≤ 20 nM | –
4 | Cc1c(-c2nc(Nc3ccc(C4CCN(C)CC4)cn3)ncc2F)sc2c(C(C)C)cncc12 [Example 123, 5-Fluoro-N-[5-(1-methylpiperidin-4-yl)pyridin-2-yl]-4-(3-methyl-7-propan-2-ylthieno[3,2-c]pyridin-2-yl)pyrimidin-2-amine] | ≤ 20 nM | > 3 | 20 to 200 nM | 20 to 200 nM | –
5 | CCN1CCN(Cc2ccc(Nc3ncc(F)c(-c4sc5c(ncn5C(C)C)c4C)n3)nc2)CC1 [Example 124, N-[5-[(4-Ethylpiperazin-1-yl)methyl]pyridin-2-yl]-5-fluoro-4-(6-methyl-3-propan-2-ylthieno[2,3-d]imidazol-5-yl)pyrimidin-2-amine] | ≤ 20 nM | 1 to 3 | 20 to 200 nM | ≤ 20 nM | –
6 | CCN1CCC(c2ccc(Nc3ncc(F)c(-c4sc5c(ncn5C(C)C)c4C)n3)nc2)CC1 [Example 128, N-(5-(1-Ethylpiperidin-4-yl)pyridin-2-yl)-5-fluoro-4-(3-isopropyl-6-methyl-3H-thieno[2,3-d]imidazol-5-yl)pyrimidin-2-amine] | ≤ 20 nM | 1 to 3 | ≤ 20 nM | ≤ 20 nM | –
7 | CCN1CC2(C1)CN(c1ccc(Nc3ncc(F)c(-c4cc5ncn(C(C)C)c5s4)n3)nc1)C2 [Example 129, N-(5-(6-ethyl-2,6-diazaspiro[3.3]heptan-2-yl)pyridin-2-yl)-5-fluoro-4-(3-isopropyl-3H-thieno[2,3-d]imidazol-5-yl)pyrimidin-2-amine] | ≤ 20 nM | 1 to 3 | ≤ 20 nM | ≤ 20 nM | –
8 | Cc1c(-c2nc(Nc3ccc(C4CCCN(C)C4)cn3)ncc2Cl)sc2c1ncn2C(C)C (centres unmarked) [Example 130, 5-Chloro-4-(3-isopropyl-6-methyl-3H-thieno[2,3-d]imidazol-5-yl)-N-(5-(1-methylpiperidin-3-yl)pyridin-2-yl)pyrimidin-2-amine] | ≤ 20 nM | 1 to 3 | 20 to 200 nM | 20 to 200 nM | –
